Tests used:
Assay type in all cases: in vivo
Tetranychus urticae Koch [1] = test: Mite adulticide test (MI); settings: 120 h, 1000 ppm spray to run off on cowpea leaves, adult mites placed 1 day after treatment, live mites counted five days later, read-out: Percent Control MI (mite adulticide)
Method: In the following examples, a stock solution for the compounds of the present invention was prepared at 3000 ppm by dissolving 0.24 gram of each compound to be tested in eight mL of acetone and adding 72 mL of distilled water plus three drops of ethoxylated sorbitan monolaurate, a wetting agent. […] For each example that follows, the stock solution was used and the specificized dilutions made. All the tests discussed below, which involved treatment with compounds of this invention, were always repeated with controls, in which the active compound was not provided, to permit a comparison upon which the percent control was calculated. One day before treatment of cowpea primary leaves with the test solutions, a “Figure 8” configuration of tree tanglefoot was applied to each of two cowpea primary leaves, one from each of two plants in a pot. The circle nearer the stem was designated for the mite ovicide test and the circle further from the stem was designated for the mite adulticide test. Groups of adult mites (Tetranychus urticae Koch) were transferred into ovicide circles one day before treatment and the females were allowed to deposit eggs until one hour before treatment, at which point all the adults were removed. The plants were then sprayed to run off with a 1000 ppm of solution diluted from the 3000 ppm stock solution. One day following treatment of the plants with the test solution, groups of approximately 25 adult mites were transferred into the adulticide rings. Five days later, these rings were examined for live mites remaining on the leaves. The percent control was estimated based on the number of mites surviving on the control plants.

Tetranychus urticae Koch [2] = test: Mite ovicide test (MIOV); settings: 216 h, 1000 ppm spray to run off on cowpea leaves, unhatched eggs examined nine days following treatment, read-out: Percent Control MIOV (mite ovicide)
Method: In the following examples, a stock solution for the compounds of the present invention was prepared at 3000 ppm by dissolving 0.24 gram of each compound to be tested in eight mL of acetone and adding 72 mL of distilled water plus three drops of ethoxylated sorbitan monolaurate, a wetting agent. […] For each example that follows, the stock solution was used and the specificized dilutions made. All the tests discussed below, which involved treatment with compounds of this invention, were always repeated with controls, in which the active compound was not provided, to permit a comparison upon which the percent control was calculated. One day before treatment of cowpea primary leaves with the test solutions, a “Figure 8” configuration of tree tanglefoot was applied to each of two cowpea primary leaves, one from each of two plants in a pot. The circle nearer the stem was designated for the mite ovicide test and the circle further from the stem was designated for the mite adulticide test. Groups of adult mites (Tetranychus urticae Koch) were transferred into ovicide circles one day before treatment and the females were allowed to deposit eggs until one hour before treatment, at which point all the adults were removed. The plants were then sprayed to run off with a 1000 ppm of solution diluted from the 3000 ppm stock solution. Nine days following treatment the ovicide rings were examined for unhatched eggs and living immature mites. The percent control was estimated based on the number of unhatched eggs.

Helicoverpa virescens = test: Tobacco budworm test (TB); settings: Heliothis virescens, 336 h; 0.2 mL of 3000 ppm stock solution on diet cell surface; second instar larva; after 14 days; corrected by Abbott's formula; read-out: Percent Control TB (tobacco budworm)
Method: In the following examples, a stock solution for the compounds of the present invention was prepared at 3000 ppm by dissolving 0.24 gram of each compound to be tested in eight mL of acetone and adding 72 mL of distilled water plus three drops of ethoxylated sorbitan monolaurate, a wetting agent. […] For each example that follows, the stock solution was used and the specificized dilutions made. All the tests discussed below, which involved treatment with compounds of this invention, were always repeated with controls, in which the active compound was not provided, to permit a comparison upon which the percent control was calculated.
For each compound tested, 0.2 mL of the stock solution prepared asdescribed above, was pipetted onto the surface of each of five diet cells, allowed to spread over the surfaces and air dried for two hours. Then a second instar Helicoverpa virescens larva was introduced into each cell. After 14 days, the number of living larvae was determined for each treatment and percent control, corrected by Abbott's formula, was calculated.

SMILES | pest or weed control at 1000 ppm (Tetranychus urticae Koch [1]) [%] | pest or weed control at 1000 ppm (Tetranychus urticae Koch [2]) [%] | pest or weed control at 3000 µg/mL (Helicoverpa virescens) [%]
CC/C(=N/Nc1cc(-c2ccccc2)ccc1C)[N+](=O)[O-] [Compound 7] | 100 | 70 | 0
CCCCCOc1ccc(-c2ccccc2)cc1N/N=C(/CC)[N+](=O)[O-] [Compound 6] | 100 | 30 | 0
COc1ccc(-c2ccccc2)cc1N/N=C(/C(C)C)[N+](=O)[O-] [Compound 4] | 100 | 0 | 0
CC/C(=N/Nc1ccc(Cl)nc1)[N+](=O)[O-] [Compound 12] | 100 | 70 | 100
CC/C(=N\Nc1cc(-c2ccccc2)ccc1OC)[N+](=O)[O-] [Compound 1, Propanal, 1-nitro, (4-methoxy-[1,1′-biphenyl]-3-yl)hydrazone] | 100 | 100 | 64
CC(C)C/C(=N\Nc1cccc(-c2ccccc2)c1)[N+](=O)[O-] [Compound 8] | 100 | 0 | 40
CC/C(=N/Nc1cc(OC)ccc1-c1ccccc1)[N+](=O)[O-] [Compound 9] | 70 | 70 | 14
C/C(=N\Nc1ccc2c(c1)Cc1ccccc1-2)[N+](=O)[O-] [Compound 10] | 0 | 0 | 0
CC/C(=N\Nc1cccc(-c2ccccc2)c1)[N+](=O)[O-] [Compound 5] | 100 | 0 | 0
COc1ccc(-c2ccccc2)cc1N/N=C/[N+](=O)[O-] [Compound 2] | 0 | 0 | 100
CCC/C(=N\Nc1cc(-c2ccccc2)ccc1OC)[N+](=O)[O-] [Compound 3] | 100 | 100 | 0
CC/C(=N\Nc1ccc2c(c1)c1ccccc1n2CC)[N+](=O)[O-] [Compound 11] | 30 | 30 | 57

Source: US7592374B2, “Insecticidal nitromethylene compounds” (Crompton Corporation, priority 2005, dated 2009)
